Results published in ChEMBL document CHEMBL3867424, “Exploring the readthrough of nonsense mutations by non-acidic Ataluren analogues selected by ligand-based virtual screening” (Eur J Med Chem, 2016).
Active and inactive are the calls of the source. The rule behind the calls is not given here.

Columns and labels:
[1] = Cytotoxicity against human HeLa cells assessed as reduction in cell viability at 300 ug/ml measured after 24 to 72 hrs; type: toxicity, cell-based
[2] = Cytotoxicity against human HeLa cells assessed as reduction in cell viability at 12 uM measured after 24 to 72 hrs; type: toxicity, cell-based
HeLa = experiment: Binding affinity to Photinus pyralis luciferase mRNA harboring the UGA premature stop codon expressed in human HeLa cells assessed as suppression of nonsense mutations by read-through of premature stop codon at 12 uM measured after 24 hrs by luminescence analysis; type: cell-based
IB3-1 [3] = experiment: Binding affinity to CFTR mRNA UGA mutant in human IB3-1 cells carrying W1282X mutation in CFTR gene assessed as increase in CFTR expression measured after 24 to 72 hrs by Western blot analysis; type: cell-based
IB3-1 [4] = experiment: (§1) Binding affinity to CFTR mRNA UGA mutant in human IB3-1 cells carrying W1282X mutation in CFTR gene assessed as suppression of nonsense mutations by read-through of UGA premature stop codon measured as induction of CFTR re-expression after 24 hrs by DAPI/Alexa-488/WGA-Alexa594 staining-based immunofluorescence analysis; type: cell-based
IB3-1 [5] = experiment: as §1, with “localization” for “induction”, “in cell membrane” for “re-expression”; type: cell membranes

For `CN[C@@H]1[C@@H](O)[C@@H](O[C@H]2[C@H](O)[C@@H](O[C@H]3O[C@H](C(C)O)[C@@H](O)[C@H](O)[C@H]3N)[C@H](N)C[C@@H]2N)OC[C@]1(C)O` (some centres undefined), the Activity [1] was “Toxic”.
In the case of `O=C(O)c1cccc(-c2noc(-c3ccccc3F)n2)c1` [ATALUREN], the Activity [2] is reported as “Non-Toxic”, the Activity (HeLa) is reported as “Active” and the Activity (IB3-1 [3]) is reported as “Active”.
For `Cc1cccc(-c2nc(-c3cccnc3)no2)c1`, the Activity [2] was “Non-Toxic”.
In the case of `Cc1cccc(-c2noc(-c3ccccc3C)n2)c1`, the Activity [2] is reported as “Non-Toxic”.
For `N#Cc1cccc(-c2nc(-c3ccccn3)no2)c1`, the Activity [2] was “Non-Toxic”.
With `Cc1cccc(-c2nc(-c3ccccc3)no2)c1` the Activity [2] was “Non-Toxic”.
In the case of `Cc1cccc(-c2nc(-c3ccncc3)no2)c1`, the Activity [2] is reported as “Non-Toxic”.
With `Cc1cccc(-c2nc(-c3ccccn3)no2)c1` the Activity [2] was “Non-Toxic”, the Activity (HeLa) was “Active” and the Activity (IB3-1 [4]) was “Active”. The Activity (IB3-1 [5]) was “Active” and the Activity (IB3-1 [3]) was “Active”.
